Test system: aged crickets
Test: Olfactory associative learning test in aged crickets (age-related memory disorder, training four times)
Assay type: in vivo, Gryllus bimaculatus
Conditions: 1 μM, 3 μl
Procedure: Male crickets about one week old (young) or three week old (aged) following molting into adult forms were used. Each of the crickets was placed into a 100 ml beaker three days before the experiment, and deprived of water for 2-3 days to enhance the desire of taking water. As the feed, about 10 pieces of insect feed were placed into the beaker. A 1-ml syringe was used for smell and reward associative conditioning upon learning/training. The syringe contained water as the reward while a piece of paper (3 mm×3 mm) perfumed with peppermint essence was pierced into the needle to about 1 cm from the tip thereof. In this learning/training, the filter paper on the needle was brought near the antennae of the cricket to allow it to smell for 3 seconds and then a drop of water was put out from the tip of the needle and applied to the mouth of the cricket. When the associative conditioning was conducted for four times, the conditionings were conducted at intervals of 5 minutes. Smell preference was examined by placing each cricket into a test arena. The arena consisted of a “standby chamber” and a “test chamber”. […] The smell source was a plastic pot containing filter paper perfumed with essence of a smell (peppermint or vanilla) and covered with a gauze lid. In the preference test, each cricket was placed into the test chamber and allowed to walk freely for 4 minutes to search for the two smell sources. Two minutes after the start of the test, a rotary board having the smell sources was rotated to reverse the positions of the vanilla and the peppermint smells. During the test, the time the cricket spent placing its mouth to the gauze of the smell source was measured as a visiting time to the smell source, and the ratio of the visiting times of the two types of smells (PI value: preference index) was calculated according to the following formula to assess the relative preference to the mint smell. PI value=Tp/(Tp+Tv)×100 • Tp: Searching time for smell associated with the reward (peppermint) • Tv: Searching time for smell not associated with the reward (vanilla) If the preferences for the two smells are equivalent, PI will be 50. Since crickets inherently prefer vanilla smell over peppermint smell, an average PI value prior to the learning/training is usually 25-35, The preference test was conducted before and after the learning/training to examine whether preference for the smell changes due to the learning/training. […] Melatonin, 6-HM, kynurenine, kynuramine and 8br-cGMP were purchased from SIGMA Aldrich, AFMK was purchased from Cayman Chemical, AMK was purchased from Toronto Research Chemicals and CHX was purchased from Wako Pure Chemical Industries. The drugs other than 8br-cGMP and CHX were first dissolved in ethanol and then diluted with physiological saline for crickets to the respective concentrations. In the administration experiment, 3 μl was administered using a 10-μl syringe to the brain via an aperture opened through a simple eye of the head. PI values were tested before the training and a day after the training in the same group by a Wilcoxon's-test.

Compound: COc1ccc(N)c(C(=O)CCNC(C)=O)c1 [Compound 1, N-[3-(2-amino-5-methoxyphenyl)-3-oxopropyl]-acetamide]
- improvement in an age-related memory disorder (20 minutes after training for four times): improvement in an age-related memory disorder was observed
- long-term memory formation a day after the training (improvement of age-related memory disorder) (20 minutes before training for four times): a long-term memory was formed

— patent US10266482B2, “Long-term memory inducing agent” (NATIONAL UNIVERSITY CORPORATION TOKYO MEDICAL AND DENTAL …, priority 2017, dated 2019)
